# Results taken from US10703733B2, “MCL-1 inhibitors” (Gilead Sciences, Inc., priority 2018, dated 2020).
# Where two headings read alike, the source gives them in different places.
# Tests used:
# [1] = tested on: SKBR3 cells; assay: SKBR3 Cell Viability Assay (CellTiter Glo); format: cell-based; settings: CellTiter Glo luminescence, read-out: MCL-1 CV SKBR3 EC50
# Procedure, shortened: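 SKBR3 cells (6,000/well) in McCoy 5A + 10% FBS exposed to serially diluted compound for 72 h at 37° C., 5% CO2. Viability by CellTiter Glo luminescence; % inhibition normalized to DMSO (negative) and 10 μM puromycin (positive).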
# [2] = target: MCL-1/Bim interaction (recombinant human MCL-1 protein, residues 171-327; biotinylated human Bim peptide, residues 51-76) (Homo sapiens (Human), UniProt Q07820); assay: MCL-1/Bim Binding AlphaLISA Assay; settings: 0.0625 nM 6xHis-Mcl-1 (171-327), 0.0625 nM biotinylated-Bim peptide
# Chain of MCL-1/Bim interaction (recombinant human MCL-1 protein, residues 171-327; biotinylated human Bim peptide, residues 51-76) (Q07820 171-327): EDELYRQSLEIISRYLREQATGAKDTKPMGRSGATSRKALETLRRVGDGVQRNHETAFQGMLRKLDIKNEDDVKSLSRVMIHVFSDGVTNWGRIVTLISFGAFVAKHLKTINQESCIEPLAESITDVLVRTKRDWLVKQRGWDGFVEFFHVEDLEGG
# Procedure, shortened: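 AlphaLISA with 0.0625 nM His-tagged MCL-1 (171-327) and 0.0625 nM biotinylated Bim (51-76) in 20 mM Hepes pH 7.5, 150 mM NaCl, 0.002% Brij 35, 1 mM DTT, 0.01% BSA. Compound preincubated 1 h with MCL-1, then Bim 2 h, acceptor beads 1 h, donor beads 1 h; percent inhibition against DMSO and no-protein/no-peptide controls.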
Structure (SMILES),"EC50 ([1]; Homo sapiens, SK-BR-3, 72 h)",IC50 [2],EC50 ([1]; 72 hours)
COC1CCn2cc(C(=O)N[S@@]3(=O)=NC(=O)c4ccc5c(c4)N(C[C@@H]4CC[C@H]4[C@@H](OC)/C=C/C[C@H](C)C3)C[C@@]3(CCCc4cc(Cl)ccc43)CO5)cc2C1 (some centres unmarked) [Example 175],33.9 nM,0.14 nM,–
CO[C@H]1/C=C/C[C@H](C)C[S@@](=O)(NC(=O)c2cnn(CC3CC3)c2)=NC(=O)c2ccc3c(c2)N(C[C@@H]2CC[C@H]21)C[C@@]1(CCCc2cc(Cl)ccc21)CO3 [Example 419],135 nM,0.186 nM,–
C[C@@H]1[C@@H](C)C/C=C/[C@H](O)[C@@H]2CC[C@H]2CN2C[C@@]3(CCCc4cc(Cl)ccc43)COc3ccc(cc32)C(=O)N=[S@]1(=O)NC(=O)c1cc2n(c1)C[C@H](CO)OC2 [Example 329],57 nM,0.087 nM,–
CO[C@H]1/C=C/C[C@H](C)C[S@@](=O)(NC(=O)NC2CC3(COC3)C2)=NC(=O)c2ccc3c(c2)N(C[C@@H]2CC[C@H]21)C[C@@]1(CCCc2cc(Cl)ccc21)CO3 [Example 217],83.2 nM,0.065 nM,–
CO[C@H]1/C=C/CCC[S@@](=O)(NC(=O)CCn2cccn2)=NC(=O)c2ccc3c(c2)N(C[C@@H]2CC[C@H]21)C[C@@]1(CCCc2cc(Cl)ccc21)CO3 [Example 39],262 nM,0.1 nM,–
CO[C@H]1/C=C/C[C@H](C)C[S@@](=O)(NC(=O)N2CC(OC)(C(F)(F)F)C2)=NC(=O)c2ccc3c(c2)N(C[C@@H]2CC[C@H]21)C[C@@]1(CCCc2cc(Cl)ccc21)CO3 [Example 246],176 nM,0.096 nM,–
CO[C@H]1/C=C/C[C@H](C)C[S@@](=O)(NC(=O)N[C@@H]2C[C@H]2C2CCOCC2)=NC(=O)c2ccc3c(c2)N(C[C@@H]2CC[C@H]21)C[C@@]1(CCCc2cc(Cl)ccc21)CO3 [Example 181],37.9 nM,0.146 nM,–
CO[C@H]1/C=C/C[C@H](C)C[S@@](=O)(NC(=O)N[C@H]2C[C@@H](OC)C2)=NC(=O)c2ccc3c(c2)N(C[C@@H]2CC[C@H]21)C[C@@]1(CCCc2cc(Cl)ccc21)CO3 [Example 149],95.3 nM,0.109 nM,–
CCn1nccc1CCC(=O)N[S@@]1(=O)=NC(=O)c2ccc3c(c2)N(C[C@@H]2CC[C@H]2[C@@H](OC)/C=C/CCC1)C[C@@]1(CCCc2cc(Cl)ccc21)CO3 [Example 45],191 nM,0.1 nM,–
CO[C@H]1/C=C/CCC[S@@](=O)(NC(=O)COc2ccccc2)=NC(=O)c2ccc3c(c2)N(C[C@@H]2CC[C@H]21)C[C@@]1(CCCc2cc(Cl)ccc21)CO3 [Example 96],604 nM,0.4 nM,–
COc1nn(C)cc1C(=O)N[S@@]1(=O)=NC(=O)c2ccc3c(c2)N(C[C@@H]2CC[C@H]2[C@@H](OC)/C=C/CCC1)C[C@@]1(CCCc2cc(Cl)ccc21)CO3 [Example 389],304 nM,0.075 nM,–
COc1ncc(C(=O)N[S@@]2(=O)=NC(=O)c3ccc4c(c3)N(C[C@@H]3CC[C@H]3[C@@H](OC)/C=C/C[C@H](C)C2)C[C@@]2(CCCc3cc(Cl)ccc32)CO4)c(OC)n1 [Example 271],176 nM,0.1 nM,–
CO[C@H]1/C=C/CCC[S@@](=O)(NC(=O)NCc2ccnn2C)=NC(=O)c2ccc3c(c2)N(C[C@@H]2CC[C@H]21)C[C@@]1(CCCc2cc(Cl)ccc21)CO3 [Example 75],692 nM,0.3 nM,–
CO[C@H]1/C=C/CCC[S@@](=O)(NC(=O)CCc2ccncn2)=NC(=O)c2ccc3c(c2)N(C[C@@H]2CC[C@H]21)C[C@@]1(CCCc2cc(Cl)ccc21)CO3 [Example 38],280 nM,0.2 nM,–
CO[C@H]1/C=C/C[C@H](C)C[S@@](=O)(NC(=O)c2cnn(C(F)F)c2)=NC(=O)c2ccc3c(c2)N(C[C@@H]2CC[C@H]21)C[C@@]1(CCCc2cc(Cl)ccc21)CO3 [Example 119],93.8 nM,0.145 nM,–
CO[C@H]1/C=C/C[C@H](C)C[S@@](=O)(NC(=O)c2cnsc2)=NC(=O)c2ccc3c(c2)N(C[C@@H]2CC[C@H]21)C[C@@]1(CCCc2cc(Cl)ccc21)CO3 [Example 411],175 nM,0.178 nM,–
CO[C@H]1/C=C/CCC[S@@](=O)(NC(=O)c2cc3ccccc3n2C)=NC(=O)c2ccc3c(c2)N(C[C@@H]2CC[C@H]21)C[C@@]1(CCCc2cc(Cl)ccc21)CO3 [Example 98],2190 nM,0.3 nM,–
CO[C@H]1/C=C/CCC[S@@](=O)(NC(=O)CCc2ccccn2)=NC(=O)c2ccc3c(c2)N(C[C@@H]2CC[C@H]21)C[C@@]1(CCCc2cc(Cl)ccc21)CO3 [Example 47],758 nM,0.1 nM,–
CO[C@H]1/C=C/C[C@H](C)C[S@@](=O)(NC(=O)c2cc3n(n2)CCO3)=NC(=O)c2ccc3c(c2)N(C[C@@H]2CC[C@H]21)C[C@@]1(CCCc2cc(Cl)ccc21)CO3 [Example 219],146 nM,0.099 nM,–
CC[C@H]1C/C=C/[C@H](OC)[C@@H]2CC[C@H]2CN2C[C@@]3(CCCc4cc(Cl)ccc43)COc3ccc(cc32)C(=O)N=[S@](=O)(NC(=O)c2cn(C)nc2OC)C1 [Example 220],97.8 nM,0.122 nM,–
CO[C@H]1/C=C/C[C@H](C)C[S@@](=O)(NC(=O)N[C@@H]2C[C@@H]2C)=NC(=O)c2ccc3c(c2)N(C[C@@H]2CC[C@H]21)C[C@@]1(CCCc2cc(Cl)ccc21)CO3 [Example 162],136 nM,0.18 nM,–
CO[C@H]1/C=C/C[C@H](C)C[S@@](=O)(NC(=O)[C@]23COCC2C3)=NC(=O)c2ccc3c(c2)N(C[C@@H]2CC[C@H]21)C[C@@]1(CCCc2cc(Cl)ccc21)CO3 (some centres unmarked) [Example 447],161 nM,0.132 nM,–
"CO[C@H]1/C=C/C[C@H](C)C[S@@](=O)(NC(=O)N[C@@H]2C[C@H]2CC(F)F)=NC(=O)c2ccc3c(c2)N(C[C@@H]2CC[C@H]21)C[C@@]1(CCCc2cc(Cl)ccc21)CO3 (single isomer, unassigned) [Example 281]",–,0.154 nM,184 nM
CO[C@H]1/C=C/C[C@H](C)C[S@@](=O)(NC(=O)c2cn(C)c3nccnc23)=NC(=O)c2ccc3c(c2)N(C[C@@H]2CC[C@H]21)C[C@@]1(CCCc2cc(Cl)ccc21)CO3 [Example 450],167 nM,0.234 nM,–

# The next compounds have a lower IC50 [2] than those just listed; values first:
"EC50 ([1]; Homo sapiens, SK-BR-3, 72 h)",IC50 [2],EC50 ([1]; 72 hours),Structure (SMILES)
37.6 nM,0.04 nM,–,CNc1nn(C)cc1C(=O)N[S@@]1(=O)=NC(=O)c2ccc3c(c2)N(C[C@@H]2CC[C@H]2[C@@H](OC)/C=C/C[C@H](C)C1)C[C@@]1(CCCc2cc(Cl)ccc21)CO3 [Example 212]
147 nM,0.037 nM,–,CO[C@H]1/C=C/C[C@H](C)C[S@@](=O)(NC(=O)c2cc3n(c2)C(=O)CCC3)=NC(=O)c2ccc3c(c2)N(C[C@@H]2CC[C@H]21)C[C@@]1(CCCc2cc(Cl)ccc21)CO3 [Example 145]
86.4 nM,0.05 nM,–,COCCn1cc(C(=O)N[S@@]2(=O)=NC(=O)c3ccc4c(c3)N(C[C@@H]3CC[C@H]3[C@@H](OC)/C=C/C[C@H](C)C2)C[C@@]2(CCCc3cc(Cl)ccc32)CO4)cc1COC [Example 337]
43.5 nM,0.039 nM,–,"CO[C@H]1/C=C/C[C@H](C)C[S@@](=O)(NC(=O)N[C@@H]2C[C@]2(C)OC)=NC(=O)c2ccc3c(c2)N(C[C@@H]2CC[C@H]21)C[C@@]1(CCCc2cc(Cl)ccc21)CO3 (single isomer, unassigned) [Example 312]"
37.9 nM,0.058 nM,–,CO[C@H]1/C=C/C[C@H](C)C[S@@](=O)(NC(=O)N2CC3(C2)CC3(F)F)=NC(=O)c2ccc3c(c2)N(C[C@@H]2CC[C@H]21)C[C@@]1(CCCc2cc(Cl)ccc21)CO3 [Example 324]
60.9 nM,0.061 nM,–,CO[C@H]1/C=C/C[C@H](C)C[S@@](=O)(NC(=O)N2CC(OC)(c3ncnn3C)C2)=NC(=O)c2ccc3c(c2)N(C[C@@H]2CC[C@H]21)C[C@@]1(CCCc2cc(Cl)ccc21)CO3 [Example 277]
136 nM,0.048 nM,–,CO[C@H]1/C=C/C[C@H](C)C[S@@](=O)(NC(=O)c2coc(C)c2)=NC(=O)c2ccc3c(c2)N(C[C@@H]2CC[C@H]21)C[C@@]1(CCCc2cc(Cl)ccc21)CO3 [Example 204]
282 nM,0.045 nM,–,CO[C@H]1/C=C/C[C@H](C)C[S@@](=O)(NC(=O)N[C@H]2C[C@H](O)C2)=NC(=O)c2ccc3c(c2)N(C[C@@H]2CC[C@H]21)C[C@@]1(CCCc2cc(Cl)ccc21)CO3 [Example 452]
26.4 nM,0.03 nM,–,COc1nn(C)cc1C(=O)N[S@@]1(=O)=NC(=O)c2ccc3c(c2)N(C[C@@H]2CC[C@H]2[C@@H](O)CCC[C@H](C)[C@H]1C)C[C@@]1(CCCc2cc(Cl)ccc21)CO3 [Example 290]
130 nM,0.033 nM,–,CO[C@H]1/C=C/C[C@H](C)C[S@@](=O)(NC(=O)N[C@H]2C[C@@H]2CO)=NC(=O)c2ccc3c(c2)N(C[C@@H]2CC[C@H]21)C[C@@]1(CCCc2cc(Cl)ccc21)CO3 [Example 171]
38.3 nM,0.039 nM,–,CO[C@H]1/C=C/C[C@H](C)C[S@@](=O)(NC(=O)N2CC(N(C)C)C2)=NC(=O)c2ccc3c(c2)N(C[C@@H]2CC[C@H]21)C[C@@]1(CCCc2cc(Cl)ccc21)CO3 [Example 333]
75.6 nM,0.055 nM,–,CO[C@@H]1CCN(C(=O)N[S@@]2(=O)=NC(=O)c3ccc4c(c3)N(C[C@@H]3CC[C@H]3[C@@H](OC)/C=C/C[C@H](C)C2)C[C@@]2(CCCc3cc(Cl)ccc32)CO4)C1 [Example 350]
99.2 nM,0.041 nM,–,CO[C@H]1/C=C/C[C@H](C)C[S@@](=O)(NC(=O)c2cc(CO)n(C)c2)=NC(=O)c2ccc3c(c2)N(C[C@@H]2CC[C@H]21)C[C@@]1(CCCc2cc(Cl)ccc21)CO3 [Example 185]
